9 substances from patent US20160083424A1, “COMPOSITIONS AND METHODS FOR TARGETING ANTIGEN-PRESENTING CELLS” (OSLO UNIVERSITETSSYKEHUS HF, priority 2013, published 2016) can be followed below.

What all share (set-up): species or system human
One test relates to Monocytes. Nature of the test: Competition of NW phage binding by NW peptide and its mutant peptides. As to conditions: for competition with NW phage binding / peptide binding to monocytes: mutant peptides, four concentrations (0.4, 2, 8, 20 μM). The method, then: (§1) In brief, aliquots of DCs (10^5) were divided into conical 96-well micro-plate, washed with PBS buffer containing 1% FCS, and then incubated with the amplified phages (≈10^9 TU) for 30-60 min on ice. After washing, cells were incubated with biotinylated anti-M13 monoclonal antibody (Abcam) and then with phycoerythrin (PE)-conjugated streptavidin. Competition assays were performed by pre-incubating DCs with different amounts of the peptides for 15 min on ice. Then NW phage (≈10^9 TU) was added and samples incubated for additional 60 min on ice. After washing, bound phages were detected as indicated above. Samples were analyzed by FACSCanto II flow cytometry.
To uncover the contribution of individual side chains and identify which amino acids are responsible for the NW peptide binding to monocytes and dendritic cells, alanine scanning was performed. Derivatives of the NW peptide were synthesized with exchange of each amino acid by alanine (FIG. 11A). These peptide derivatives were used to compete with the NW phage binding to monocytes. For each peptide, four concentrations were tested. Bound phage particles were detected with the use of biotin conjugated anti-M13 antibody and PE-conjugated streptavidin. The NW peptide (WT) competed effectively with the phage binding to monocytes with an IC50 of approximately 0.5 uM. The replacement of tryptophan (W) at position 2, 6, or 12 by a single alanine abolished the binding. Indeed, no significant competition with the phage binding was seen even at high peptide concentrations (C4=20 uM). Similarly, replacement of leucine (L) at position 4 or 7 by alanine inhibited the peptide binding (FIG. 11B).

The subject of test [1] is iDCs. Nature of the test: Peptide binding by flow cytometry. The procedure:
The cells were seeded onto 24-well plate (3×10^5/well/0.5 ml) in X-vivo 15 medium and incubated overnight at 37° C. Subsequently, they were incubated with 6IAF-conjugated peptides (5 μg/ml) for 30 min at 37° C., gently scraped, washed 3 times and then analyzed by flow cytometry. Binding was also performed at 4° C.

The subject of the next test is iDC. Put plainly: Competition of NW phage binding by synthetic peptides. The procedure:
as §1
To further investigate the importance of the NW peptide on phage binding, competition experiments were performed using synthetic peptides.

For test [2], the system named is iDCs. Put plainly: Phage binding by flow cytometry. As to conditions: binding of the phage clones to iDC, flow cytometry. The method, then: as §1

In the case of “Deletion of N10D11: NW peptide with N10 and D11 deleted; likely NWYLPWLGTW (SEQ ID NO:38)”, the “reduction in IC50 relative to NW peptide” value with Monocytes (monocytes) was “approximately 20 fold”. Further, in the test with Monocytes, the “competition with NW phage binding / peptide binding to monocytes” value is “reduced the binding”.

Take “GALDTTHHRPWTC [control peptide, irrelevant control peptide, reference compound]”: the “binding of 6-IAF-conjugated peptides to iDCs” value in the test on iDCs [1] (4° C. and 37° C.) was “no significant binding”. Besides, in the test on iDC, the “inhibition of the phage binding to iDC by synthetic peptides” value was “but not an irrelevant control peptide, effectively inhibited”.

GETRAPL [DC19]: the Binding entry in the test with iDCs [2] is “+++ (binding <80%: +++)”.

Turning to “N10D11 double mutant: NW peptide with asparagine 10 and aspartic acid 11 both replaced by alanine (NWYLPWLGTAAW)”, in the test on Monocytes (at C3 concentration (8 μM), unstained cells 250), the “mean fluorescence of bound phage” value is on record as approximately 250. In addition, the “competition with NW phage binding / peptide binding to monocytes” value in the test with Monocytes is “effectively competed”.

Take “NWYGAGAGTNDW [NW-mutant, NW-peptide lacking the motif LPWL]”: the “inhibition of the phage binding to iDC by synthetic peptides” value with iDC is reported as “failed to reduce binding”.

As for “NWYLPWLGTNDWAGILARNLVPMVATVQGQNLC [NW-33-mer, CMV pp65 peptide fused to NW peptide]”, the “binding of 6IAF-conjugated pp65 fusion peptides to DCs” value in the test on iDCs [1] (iDCs) was “bound to iDCs”.

Regarding QLPRTAL [DC10], the Binding entry with iDCs [2] is given as “+++ (binding <80%: +++)”.

Regarding QWELPWLMQPPL [DC6], the Binding result with iDCs [2] is “++++ (Binding >80-100%: ++++)”.

For the substance SPGLSLVSHMQT [DC13], the Binding entry in the test on iDCs [2] is given as “+++ (binding <80%: +++)”.
